One data set in a line: Testing for mydriasis. The settings on record: in vivo, iv; rat; pupil size observed for 10 minutes; blind test. More on the design: species or system rats. As for the experimental part:
The effect of the test substances on the pupil size in rats was investigated as follows:
The substances were administered intravenously to groups of 10 animals in at least three uniformly graduated doses.

Data set [1] has as its target muscarinic receptors (smooth muscle of the fundus of the stomach). Description: Binding to muscarinic receptors, 3H-N-methylscopolamine displacement, smooth muscle of fundus of stomach. More on the design: species or system male Sprague-Dawley rats. The following applies: smooth muscle of fundus homogenate 1:100; 0.3 n molar 3H-N-methylscopolamine; 30° C., 45 minutes; pH 7.4; read-out: Receptor binding tests IC50, Smooth Muscle Fundus of Stomach. As for the experimental part:
(§1) 3. STUDIES OF BINDING TO MUSCARINIC RECEPTORS: DETERMINATION OF THE IC50 VALUES
(§2) The organ donors were male Sprague-Dawley rats with a body weight of from about 180 to 220 gm each. After the heart, stomach, and cerebral cortex had been removed, the remainder of the operation was carried out in ice-cold Hepes-HCl buffer (pH 7.4; 100 m molar NaCl, 10 m molar MgCl2). The smooth muscle of the fundus of the stomach was separated from the mucous membrane of the stomach and subjected to preliminary homogenization. The whole heart was cut up with scissors. All the organs were then homogenized in a Potter apparatus.
(§3) For the binding test, the homogenized organs were diluted as follows:
Smooth muscle of the fundus of the stomach: 1:100
(§4) The homogenized organ preparations were incubated at a specific concentration of the radioligand and with a series of concentrations of the non-radioactive test substances in an Eppendorf centrifuge tube at 30° C. The duration of incubation was 45 minutes. As substance 0.3 n molar ^3 H-N-methylscopolamine (^3 H-NMS) was used as the radioligand. After incubation had been brought to an end by centrifuging at 14000 g, the radioactivity in the pellet was determined. It represents the sum of the specific and non-specific binding of ^3 H-NMS. The proportion of non-specific binding was defined as the radioactivity which was bound in the presence of 1μ molar quinuclidinylbenzylate. Four measurements were taken in each case. The IC50 values of the non-labelled test substances were determined graphically. They represent the concentration of test substance at which the specific binding of ^3 H-NMS to the muscarinic receptors in the various organs was inhibited by 50%.

Data set [2] concerns the target muscarinic receptors (cerebral cortex). Description: Binding to muscarinic receptors, 3H-N-methylscopolamine displacement, cerebral cortex. The settings on record: cerebral cortex homogenate 1:3000; 0.3 n molar 3H-N-methylscopolamine; 30° C., 45 minutes; pH 7.4; read-out: Receptor binding tests IC50, Cortex. More on the design: species or system male Sprague-Dawley rats. Here is the method: as §1, §2, §3, §4

For data set [3], the system named is muscarinic receptors (oxotremorine-induced secretion of saliva). Description: Oxotremorine test: inhibition of salivation. It is filed as in vivo, female albino rats (Crl:COBS-CD (SD) BR strain). The settings on record: iv, 0.25 h; rat, test substance i.v. 15 minutes before oxotremorine 0.083 mg/kg i.v.; blind test. Here is the method: (§5) Oxotremorine, a specific against for muscarinic receptors produces lesions in the mucous membrane of the stomach in rats and increases their secretion of saliva. This test method was chosen so that any selective activity of an antimuscarinic substance on the stomach could be identified.
(§6) Ten female albino rats (of the Crl:COBS-CD (SD) BR strain) with a body weight of from 120 to 150 gm apiece were used in each treatment group and were kept without food for 24 hours before the start of the test but given free access to drinking water.
(§7) To determine, in preliminary tests, the muscarinic effect of oxotremorine on each of the symptons studies, a dosage/activity curve was drawn up with at least three dosages for each symptom.
(§8) When the antimuscarinic substances were tested, the dosage of oxotremorine which triggered the symptom in question in 90 to 100% of the animals in the preliminary tests was used.
Secretion of saliva: 0.083 mg/kg i.v.
(§9) Each antimuscarinic substance was administered intravenously in uniformly graduated doses 15 minutes before the oxotremorine was administered. Control groups were given corresponding quantities of the solvent and suspension agent instead of the test substance. Immediately after the oxotremorine was administered, the animals were placed in a glass case for 15 minutes and observed.
The ED50 values were determined using the method described by LITCHFIELD and WILCOXON (J. Pharmacol. Exp. Ther. 96, 99, 1949).

In data set [4] the target is T1, muscarinic receptors (whole heart) (Rattus norvegicus, UniProt P10980).
T1 construct: from tissue; host or cells: whole heart of male Sprague-Dawley rats, homogenate
T1 sequence (P10980 1-466): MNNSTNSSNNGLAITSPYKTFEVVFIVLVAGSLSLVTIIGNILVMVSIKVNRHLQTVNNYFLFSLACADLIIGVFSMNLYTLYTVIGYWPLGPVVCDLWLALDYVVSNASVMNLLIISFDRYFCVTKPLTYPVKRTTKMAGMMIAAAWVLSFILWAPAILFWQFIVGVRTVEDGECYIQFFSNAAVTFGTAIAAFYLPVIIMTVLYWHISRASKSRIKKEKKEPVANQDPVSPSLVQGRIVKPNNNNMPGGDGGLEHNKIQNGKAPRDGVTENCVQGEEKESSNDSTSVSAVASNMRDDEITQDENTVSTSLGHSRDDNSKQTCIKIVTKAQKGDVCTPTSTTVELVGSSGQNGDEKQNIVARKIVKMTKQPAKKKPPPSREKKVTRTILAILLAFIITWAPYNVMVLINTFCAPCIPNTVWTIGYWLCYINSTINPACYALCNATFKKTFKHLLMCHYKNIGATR
Description: Binding to muscarinic receptors, 3H-N-methylscopolamine displacement, whole heart. The settings on record: whole heart homogenate 1:250; 0.3 n molar 3H-N-methylscopolamine; 30° C., 45 minutes; pH 7.4; read-out: Receptor binding tests IC50, Heart. More on the design: species or system male Sprague-Dawley rats. As for the experimental part: as §1, §2, §3
as §4, with “It represents the sum of the specific and non-specific binding of ^3 H-NMS.” left out, “Four measurements were taken in each case.” left out, “They represent the concentration of test substance at which the specific binding of ^3 H-NMS to the muscarinic receptors in the various organs was inhibited by 50%.” left out

For data set [5], the system named is muscarinic receptors (oxotremorine-induced lesions in the mucous membrane of the stomach). Description: Oxotremorine test: lesions in the mucous membrane of the stomach (anti-ulcerative effect). The settings on record: iv; rat, test substance i.v. 15 minutes before oxotremorine 0.62 mg/kg i.v.; neostigmine 1 mg/kg oral. It is filed as in vivo, female albino rats (Crl:COBS-CD (SD) BR strain). Here is the method:
as §5, §6, §7, §8
Lesions in the mucous membrane of stomach: 0.62 mg/kg i.v.
as §9
The effects on lesions of the nucous membrane of the stomach were evaluated as follows:
The lesions of the gastric mucous membrane were produced by intravenous injection of 0.62 mg/kg of oxotremorine 30 minutes after the oral administration of 1 mg/kg of neostigmine (a cholinesterase inhibitor). Sixty minutes after the administration of the neostigmine, the animals were killed, and the stomachs were removed, opened, and examined for the presence of any lesions in the mucous membrane. The protective effect of the test substances was expressed as the percentage inhibition (percentage of animals with lesions).
The ED50 and ED70 values were determined using the method of LITCHFIELD and WILCOXON (eee above).

One may read the ED50 as the dose at which the effect has come halfway, by size or by number of responders. What is called IC50 is the midpoint of a concentration-inhibition curve. In the data set “Testing for mydriasis”, `CN1CCC(OC(=O)N2c3ccccc3NC(=O)c3ccccc32)CC1` [A] gave an ED50 at 10 min of 0.071 mg/kg. For the same compound, the IC50 in data set [1] was found to be 60 nM; in data set [2] it was 5.5 nM; in data set [4], 42 nM. Also, the ED50 in data set [3] was found to be 0.064 mg/kg; in data set [5], 0.0155 mg/kg. The ED70 in data set [5] was determined as 0.036 mg/kg.

In turn, `CN1CCC(NC(=O)N2c3ccccc3NC(=O)c3ccccc32)CC1` [B] yielded an ED50 at 10 min in the data set “Testing for mydriasis” of 0.023 mg/kg. Besides, the IC50 came out at 100 nM in data set [1], 13 nM in data set [2] and 75 nM in data set [4]. In addition, the ED50 worked out at 0.022 mg/kg in data set [3] and 0.0025 mg/kg in data set [5]. Further, in data set [5], the ED70 was found to be 0.0048 mg/kg.

As to `CN1CCN(NC(=O)N2c3ccccc3NC(=O)c3ccccc32)CC1` [C], the ED50 at 10 min in “Testing for mydriasis” came out at 0.0825 mg/kg. The results for the IC50 in data set [1] and in data set [2] were 90 nM and 18 nM, respectively. The results for the ED50 in data set [3] and in data set [5] were 0.032 mg/kg and 0.0036 mg/kg, respectively. For the same compound, the ED70 in data set [5] turned out to be 0.007 mg/kg.

Values taken from patent US4443452A, “Dibenzodiazepinones, pharmaceutical compositions thereof and method of use thereof” (Dr. Karl Thomae GmbH, priority 1982, dated 1984).
